Results on eight compounds are retold here after US5512479A, “Method of degrading volatile organochlorides and remediation thereof” (priority 1993, dated 1996).

For series [1], the system named is toluene monooxygenase (TMO). It is filed as cell-based, Pseudomonas mendocina KR-1. Particulars: for TMO Activity (DPM): cells grown 48 hr on growth substrate (Table 1); for % Activity: relative to toluene-grown cells (Table 1). The procedure: (§1) Radioactivity in the bottles was enumerated by placing the bottles in a liquid scintillation counter. Results were recorded as disintegrations per minute (DPM). […] Non-volatile products were not evaporated from the silica gel during the drying phase, and were enumerated by scintillation counting. Thus, the greater the DPMs, the greater the TMO activity.
To determine the ability of alkanes to assist in the induction of TMO activity in P. mendocina KR-1 and to subsequently degrade TCE, the organism was grown in basal salts medium with hexane, octane and pentane as sole carbon and energy sources.
Cells were grown for 48 hr, washed with BSM, then suspended to an OD550 of 1.0 in BSM. Cells were incubated for 1 hr to allow removal of most residual alkane. They were then subjected to TMO and TCE assays.

The subject of series [2] is toluene monooxygenase (TMO). Kind of series: TCE induced TMO activity with different growth substrates (14C-toluene assay). It is filed as cell-based, Pseudomonas mendocina KR-1. To be noted: 40 μM TCE; for induced TMO activity increase (FIG. 4): growth substrate run, 6 hour period; for factor of TMO activity increase after addition of the substrate (FIG. 4): 3 g/L glutamate, 2 g/L glucose, or 20 mM lactate added after 2.75 hours. The procedure:
as §1
(§2) The effect of three growth substrates on TCE induced TMO activity was also established through a series of four runs. Cells were grown overnight as previously described for non-inducing growth: 30° C., 100 RPM, 50 mL cells in 125 mL flask in BSM with either 3 g/L sodium glutamate, 20 mM lactate, or 2 g/L glucose. The cultures were then washed and suspended to an O.D.550 =1.0 in BSM plus 0.3 g/L glutamate, 2.0 mM lactate, and 0.2 g/L glucose, respectively. TCE was then added to a final concentration of 40 μM, vials were sealed, and shaken at 30° C. […] At timed intervals, 10 μL of the air above the reaction mixture was removed from the vials by using a gas-tight syringe, and injected onto a gas chromatograph (Varian 3400; Star Data System) equipped with a 30M VOCOL column (Supelco Inc.: c0.53 mm ID, […] film, helium carrier at 7 mL/min, 100° C. isothermal, injector at 225° C.) and an electron capture detector (GC-ECD; 300° C.) to quantify the TCE remaining in the vial. Relative TCE concentration was enumerated as area counts, greater area counts representing greater amounts of TCE remaining in the vials. Five cell suspensions as described above were supplemented with 1 μM, 10 μM, 20 μM, 40 μM and 80 μM of TCE. A control run not shown in FIG. 3, and performed in the same manner as the other five runs, contained only DMF. Cell suspensions were incubated at 30° C. with shaking, and TMO activity, as described above with respect to Example 1, was determined at timed intervals.

The test system of series [3] is toluene monooxygenase (TMO). It is filed as cell-based, Pseudomonas mendocina KR-1. Particulars: for induction of TMO, in words: substrate added to glutamate-grown cells. The protocol:
as §1
A TMO assay was performed on the cells. Then 5 ml of the culture was added to each of four 50 mL serum vials. […] The vials were incubated at 30° C. and sampled, by using a glass syringe, at 1.5 hr and 2.5 hr after substrate addition.

A further series deals with Pseudomonas cepacia. To be noted: cited from earlier work.
The test system of a further series is Pseudomonas putida. To be noted: only upon induction by toluene or phenol; cited from earlier work.
The subject of series [4] is Pseudomonas mendocina KR-1. The series is described as follows: TCE degradation (TCE bottle assay, gas chromatography). It is filed as cell-based. The procedure: as §2
To determine the ability of alkanes to assist in the induction of TMO activity in P. mendocina KR-1 and to subsequently degrade TCE, the organism was grown in basal salts medium with hexane, octane and pentane as sole carbon and energy sources. TMO activity was determined by using the ^14 C-toluene assay and TCE degradation was measured by using a TCE bottle assay, both as described previously.
Finally, alkane grown cells were analyzed for their ability to degrade TCE by using the TCE bottle assay and cells suspended in BSM to OD550 =2.0. […] Loss of TCE in the control (glucose) sample is thought to be due to induction of TMO by TCE.

The test system of series [5] is toluene monooxygenase (TMO). The series is described as follows: TMO activity induced by TCE (14C-toluene assay). It is filed as cell-based, Pseudomonas mendocina KR-1. The protocol: Cells were first grown overnight under non-inducing conditions. Specifically, cells were grown by suspending a small amount of cells from agar plate, or broth media, in a 125 mL flask containing 50 mL of basal salts medium (BSM) containing 3 g/L sodium glutamate with or without 0.1 g/L casamino acids (Difco). Cells were placed on a rotary shaker and shaken at 100 rpm and 30° C. for 16-24 hr. The cells were then centrifuged and washed with BSM. They were subsequently suspended in BSM and glutamate (3 g/L) to an optical density at 550 nm (OD550) of 1.0. Ten mL of cell suspension was added to a 50 mL serum vial, and 10 μL TCE (40 mM) dissolved in dimethylformamide (DMF) was added to a final concentration of 40 μM.
Comparison non-induced samples were prepared by adding only dimethylformamide (10 μL) to replicate 10 mL cell suspensions. The comparison samples contained no TCE. All sample vials were sealed with teflon-coated crimp seals and the cell suspensions were shaken at 25° C.
as §1
Another set of experiments containing five runs was performed to determine the preferred concentration of TCE used to induce the TMO genes in P. mendocina KR-1. TCE degradation was measured by suspending cells in BSM to an OD550 of 1.0. 10 mL of cells were added to 50 mL serum vials and 10 μL of TCE in dimethylformamide was added (final TCE concentration: 1-80 μM). Vials were sealed with teflon-lined crimp seals and shaken at 30° C. At timed intervals, 250 μl of sample was removed from each sample by using a syringe. The sample was mixed with 250 μl BSM to generate a final volume of 0.5 mL and OD550 of 0.5. ^14 C-Toluene assays were then performed on the samples as described previously.

In the case of `N[C@@H](CCC(=O)[O-])C(=O)[O-].[Na+].[Na+]` [Gultamate, sodium glutamate, reference compound], in series [1], the “TMO Activity (DPM)” value turned out to be 123 DPM and the “% Activity” value turned out to be 0.7%. In series [2], the “induced TMO activity increase (FIG. 4)” value is recorded as “up to 3,500 DPM” and the “factor of TMO activity increase after addition of the substrate (FIG. 4)” value (shortened to “factor of TMO activity increase”) is on record as “at least 5”.
Regarding `CCCCCC` [Hexanes], in series [1], the “TMO Activity (DPM)” value was 4889 DPM and the “% Activity” value was determined as 29%.
Taken in the same sequence, the figures for `CCCCCCCC` [Octane] were 3915 DPM and 23%.
With `CCCCC` [Pentane], the “TMO Activity (DPM), T = 1.5 hr.” value in series [3] (1.5 hr after substrate addition, 30° C. (Table 2)) is on record as 2480 DPM. The “TMO Activity (DPM), T = 2.5 hr.” value in series [3] (2.5 hr after substrate addition, 30° C. (Table 2)) is 1293 DPM. In series [3] (T = 0, before substrate addition (Table 2)), the “TMO Activity (DPM), T = 0” value turned out to be 126 DPM. For the same compound, in series [3] (killed (100 μl 1M HCl) + pentane, 1.5 hr (Table 2)), the “TMO Activity (DPM), T = 1.5 hr., killed cells” value is recorded as 128 DPM. The “TMO Activity (DPM), T = 2.5 hr., killed cells” value in series [3] (killed (100 μl 1M HCl) + pentane, 2.5 hr (Table 2)) was 121 DPM. For the same compound, the “TMO Activity (DPM), T = 0, killed cells” value in series [3] (killed (100 μl 1M HCl) + pentane, T = 0 (Table 2)) is 126 DPM. Also, the “induction of TMO, in words” value in series [3] is reported as “induction of TMO by pentane”. For the same compound, in series [1], the “TMO Activity (DPM)” value stood at 2079 DPM and the “% Activity” value was determined as 12%.
For the compound `ClC=C(Cl)Cl` [TCE, trichloroethylene], the “TCE degradation by Pseudomonas cepacia G4” value with Pseudomonas cepacia (grown without an inducer) is reported as “unable to degrade TCE”. Further, the “TCE degradation by Pseudomonas cepacia 5223-PR1” value in the series with Pseudomonas cepacia (recombinant strain) was “did display the ability to degrade TCE”. Besides, the “TCE degradation by Pseudomonas putida PpF1 and B5” value in the series with Pseudomonas putida is “some ability to degrade TCE”. In series [4] (6 hours, glucose (2 g/L) added after about 3 hours, 40 µM), the “percentage of TCE remaining (FIG. 6)” value is given as “about 10%”. Further, the “loss of TCE in the control (glucose) sample (FIG. 7)” value in series [4] (OD550 = 2.0, glucose-grown control) is recorded as “Loss of TCE”. The “TCE degradation (FIG. 6)” value in series [4] (absent any additional inducing substrates) is “TCE degradation occurs simply by contacting Pseudomonas mendocina cells with TCE”. Further, in series [4] (sealed vials, 6 hours), the “TCE concentrations in response to TMO induction (FIG. 5)” value is listed as “decreased in response to TMO induction”. Also, the “TMO induction by TCE in glutamate- and glucose-grown cells” value in series [2] is given as “rapid induction”. In addition, the “TMO activity (FIG. 3)” value is on record as “very little TMO activity was measured” in series [5] (1 μM TCE, 4 hour test period) and “increased dramatically after the first half hour” in series [5] (10 μM or more of TCE, after the first half hour). The “induced TMO activity over 30 minutes (FIG. 1)” value in series [5] (40 μM TCE, 25° C., 30 minute period) is recorded as “increased dramatically over the 30 minute time period”. In series [5] (40 μM TCE, first 75 minutes), the “TMO activity (FIG. 2)” value is reported as “over 3,000 DPM”. Further, in series [5] (40 μM TCE, remaining 4 1/2 to 5 hours of six hour experiment), the “further increase of TMO activity (FIG. 2)” value is “almost two fold”. Further, the “rate of increase of TMO activity (FIG. 1)” value in series [5] (40 μM TCE, ten minute time interval) is “substantially two fold rate”. The “induction of TMO activity (FIG. 3)” value is on record as “best results with respect to induction of TMO activity” in series [5] (10 and 20 μM TCE); “quite effective” in series [5] (concentrations higher than 10 and 20 μM TCE).
Consider `Cc1ccccc1` [Toluene, reference compound], for which the “induction of TMO, in words” value in series [3] was “only limited activity was observed”. The “% Activity” value in series [1] amounted to 100%.
Take `CC(O)C(=O)O` (stereo not shown) [lactate]: the “TMO activity up to 2.75 hours (FIG. 4)” value in series [2] (before addition of further substrate) is listed as “little or no TMO activity”. For the same compound, in series [2], the “factor of TMO activity increase” value is “at least 5”.
glucose: the “effect of growth substrate on TCE degradation (FIG. 5)” value in series [4] (40 μM TCE, 6 hours) is “greatest effect on TCE degradation”. Also, in series [2], the “induced TMO activity increase (FIG. 4)” value is reported as “under 5,000 DPM” and the “factor of TMO activity increase” value is recorded as “at least 5”.
